Source: patent publication US7169813B2, “4-oxo-fenretinide, administered alone and in combination with fenretinide, as preventive and therapeutic agent for cancer” (Fondazione IRCCS “Istituto Nazionale Dei Tumori”, priority 2004, dated 2007)
“And” between values parts separate entries of the source, which are not always exact repeats. Identical values can stand only once. Like-named read-outs stand apart in the source and are kept apart here.

Tests used:
SW626 = experiment: Antiproliferative effect, single agents and combination; format: cell-based, human; conditions: single agent 1 μM, 72 h, single experiments
Procedure: (§1) For the growth inhibition assays, cells were seeded at a density of 3500 cells per well in 96 cluster tissue culture plates, and treated 24 hr after seeding with different concentrations of 4-oxo-4-HPR or 4-HPR. 4-oxo-4-HPR was dissolved in absolute ethanol and 4-HPR (obtained from Dr. J. A. Crowell —NCI Bethesda, Md., USA) was dissolved in Me2SO. […] Control cultures received the same amount of ethanol or Me2SO as the treated cultures. 72 hr after treatment cell number was estimated by using the sulforhodamine B assay according to Monks et al., (J. Natl. Cancer, 1991, 11: 757–766). The survival of treated cells was calculated for the various drug concentrations as percentage of the survival of control cells. The antiproliferative activity of 4-oxo-4-HPR and 4-HPR in each cell line, was tested in three separate experiments and the average values ±SD are reported in FIGS. 2, 3, and 4.
The antiproliferative effect of the combination of the two drugs, administered at one single dose, was also tested in other ovarian carcinoma cell lines and in breast tumor cell lines. The type of interaction between 4-HPR and 4-oxo-4-HPR was assessed by the method of Drevinko et al., as described in Cancer Biochem. Biophys., 1976, 1:187–195. […] The combination index (CI) was calculated as follows: survival fraction (SF) of the combination of 4-HPR+4-oxo-4-HPR divided by (SF 4-HPR×SF 4-oxo-4-HPR). […]

plasma retinol levels = experiment: Effects on plasma retinol in mice; format: in vivo; conditions: mice i.p. 120 mg/kg for 4 days; for Retinol % reduction: plasma, baseline vs 5 h after last treatment, control 22
Procedure: One of the main side effects of 4-HPR, is diminished dark adaptation or nyctalopia (Formelli et al., FASEB J., 1996, 10:1014–1024) which is caused by a decrease in plasma retinol levels (Formelli et al., Cancer Res., 49:6149–6152). The influence of 4-oxo-4-HPR on plasma retinol levels was assessed in mice and was compared with the effects caused by 4-HPR. Animal studies were approved by the Ethics Committee for Animal Experimentation of Istituto Nazionale Tumori (Milan Italy) and were carried out according to national and international guidelines (Italian Governing Law, Legislative decree 116, Jan. 27, 1992 and UKCCCR guidelines for the welfare of animals in experimental neoplasia. Br. J. Cancer 1988, 58:109–113). Female Swiss nude mice (7–9 weeks old) were supplied by Charles River (Calco, Italy) and kept in laminar air-flow rooms in sterilised cages, with bedding, food and acidified water. 4-HPR was obtained from Dr. J. A. Crowell —NCI Bethesda, Md., USA. 4-oxo-4-HPR and 4-HPR were dissolved in absolute ethanol and then diluted in a sterile 0.9% (w/v) NaCl solution containing 1,65 mg/ml bovine serum albumin (Sigma, St Louis, Mo., USA) at a final ethanol concentration of 10% (v/v). The drug solutions were freshly prepared once a week, protected from light and kept at 4° C. Mice were treated i.p. with 120 mg/kg of 4-oxo-4-HPR or 4-HPR for 4 days. The two drugs were delivered at a volume of 10 ml/kg of body weight. Control mice were treated with the same solvent of 4-oxo-4HPR and 4-HPR. Three mice per group were used. Blood samples, for drug and retinol measurements, were drawn from the retroorbital plexus of anesthetized mice before and 5 hr after the last treatment, collected into heparinized tubes and wrapped in aluminium foil in order to protect them from light. Retinol and drug concentrations in plasma were assayed by HPLC as previously described (Formelli et al., Cancer Res. 1989, 49:6149–6152) and as above reported (see Exemple 1) and are reported in Table 3.

SK-N-MC = experiment: Growth inhibition (sulforhodamine B assay); format: cell-based, human; conditions: for IC50: Homo sapiens, 72 h, read-out: 50% Inhibitory Concentrations (IC50) at 72 h
Procedure: (§2) The following human breast tumor cell lines, obtained from Dr. R. Sutherland (Garvan Institute, Sydney, Australia) were tested: T-47D, BT-20 and MCF-7. The following human neuroblastoma cell lines, purchased from ATCC, were tested: SK-N-BE, SK-N-SH, SK-N-MC, and GI-LI-N. All cell lines were grown in monolayer, in medium containing 10% fetal bovine serum (Invitrogen) in 5% CO2 at 37° C. The medium for A2780, A2780/HPR, IGROV-1, OVCA432, SKOV-3, T-47D, BT-20, MCF-7, GI-LI-N and SK-N-BE cells was RPMI 1640 (Cambrex, Verviers, Belgium) and the medium for OAW42, SK-N-MC and SK-N-SH cells was EMEM (ATCC).
as §1

SK-N-BE = experiment: Growth inhibition (sulforhodamine B assay); format: cell-based, human; conditions: for IC50: Homo sapiens, 72 h, read-out: 50% Inhibitory Concentrations (IC50) at 72 h
Procedure: as §2, §1

SK-N-SH = experiment: Growth inhibition (sulforhodamine B assay); format: cell-based, human; conditions: for IC50: Homo sapiens, 72 h, read-out: 50% Inhibitory Concentrations (IC50) at 72 h
Procedure: as §2, §1

OVCA432 = experiment: Growth inhibition (sulforhodamine B assay), single agents and combination; format: cell-based, human
Procedure: (§3) The following human ovarian carcinoma cell lines were tested: A2780 was obtained from Dr. R. F. Ozols (National Cancer Institute, Bethesda, Md., USA); IGROV-1 was obtained from Dr. J. Benard (Villejuif, France); OVCA432 was obtained from Dr. R. C. Knapp (Boston, Mass., USA); OAW42 and SKOV-3 were purchased from ATCC (Rockville, Md., USA). A2780/HPR, a 4-HPR— resistant ovarian carcinoma cell line, was obtained in our laboratory by continuous exposure of A2780 cells to increasing concentrations of 4-EPR as previously described (Appierto et al., Br. J. Cancer, 2001, 84:1528–1534; Prinetti et al., J. Biol. Chem., 2003, 278:5574–5583). Briefly, cells surviving 60 transplants in 4-HPR —containing medium (3 transplants at 1 μM, 11 transplants at 2 μM, 8 transplants at 3 μM, and 38 transplants at 5 μM) were cloned by limiting dilution. […] Therefore, A2780/HPR cells were continuously maintained in 5 μM 4-HPR and seeded without 4-HPR in all the experiments performed to test their sensitivity to 4-oxo-4-HPR.
as §2, §1
(§4) The antiproliferative effect of the combination of the two drugs, administered at one single dose, was also tested in other ovarian carcinoma cell lines and in breast tumor cell lines. The type of interaction between 4-HPR and 4-oxo-4-HPR was assessed by the method of Drevinko et al., as described in Cancer Biochem. Biophys., 1976, 1:187–195. For this evaluation the drugs were assumed to provide independent effects. The combination index (CI) was calculated as follows: survival fraction (SF) of the combination of 4-HPR+4-oxo-4-HPR divided by (SF 4-HPR×SF 4-oxo-4-HPR). The results for CI are defined as follows: CI=1 indicates an additive effect, CI<1 indicates a supra-additive effect and CI>1 indicates a sub-additive effect.

IGROV-1 = experiment: as above; format: cell-based, human
Procedure: as §3, §2, §1, §4

A2780/HPR = experiment: as above; format: cell-based, human; conditions: for Survival (% control cells): single experiments
Procedure: as §3, §2, §1, §4

[1] = OVCA432; single agent 1 μM; 72 h; single experiments
[2] = IGROV-1; single agent 1 μM; 72 h; single experiments

With CC1=C(/C=C/C(C)=C/C=C/C(C)=C/C(=O)Nc2ccc(O)cc2)C(C)(C)CCC1 [4-HPR, N-(4-hydroxyphenyl)retinamide, reference compound] the “Survival (% control cells)” value (SW626) was 96 % control cells and 98 % control cells, the Retinol % reduction (plasma retinol levels) was 56% and the IC50 (SK-N-MC) was 700 nM. The IC50 (SK-N-BE; SK-N-BE) was 5000 nM, the IC50 (SK-N-SH) was 5000 nM and the IC50 (OVCA432; Homo sapiens; OVCA432; 72 h; read-out: 50% Inhibitory Concentrations (IC50) at 72 h) was 8000 nM. The “Survival (% control cells)” value (OVCA432; [1]) was 115 % control cells and 105 % control cells, the IC50 (IGROV-1; Homo sapiens; IGROV-1; 72 h; read-out: 50% Inhibitory Concentrations (IC50) at 72 h) was 5000 nM and the “Survival (% control cells)” value (IGROV-1; [2]) was 97 % control cells and 91 % control cells. The “Survival (% control cells)” value (A2780/HPR; A2780/HPR, 4-HPR 5 μM, 72 h) was 81 % control cells and 89 % control cells and the IC50 (A2780/HPR; Homo sapiens, A2780/HPR (4-HPR-resistant), 72 h, read-out: 50% Inhibitory Concentrations (IC50) at 72 h) was 8000 nM.
For CC1=C(/C=C/C(C)=C/C=C/C(C)=C/C(=O)Nc2ccc(O)cc2)C(C)(C)CCC1=O [4-oxo-4-HPR, 4-oxo-N-(4-hydroxyphenyl)retinamide], the “Survival (% control cells)” value (SW626) was 90 % control cells and 98 % control cells, the “reduction of plasma retinol levels, in words” value (plasma retinol levels) was “reduction only slightly higher than observed in control mice” and the Retinol % reduction (plasma retinol levels) was 38%. For the same molecule, the “cell sensitivity (FIG. 4), compared with 4-HPR, in words” value (SK-N-MC; 72 hr) was “more sensitive only at the lowest concentration tested (0.3 μM)”, the IC50 (SK-N-MC) was 400 nM and the IC50 (SK-N-BE) was 1000 nM. The “cell sensitivity (FIG. 4), compared with 4-HPR, in words” value (SK-N-BE; SK-N-BE, 72 hr) was “more sensitive to 4-oxo-HPR than to 4-HPR”, the “cell sensitivity (FIG. 4), compared with 4-HPR, in words” value (SK-N-SH; 72 hr) was “more sensitive to 4-oxo-HPR than to 4-HPR” and the IC50 (SK-N-SH) was 3000 nM. The IC50 (OVCA432; Homo sapiens, OVCA432, 72 h, read-out: 50% Inhibitory Concentrations (IC50) at 72 h) was 2500 nM, the “Survival (% control cells)” value (OVCA432; [1]) was 98 % control cells and 102 % control cells and the IC50 (IGROV-1; Homo sapiens, IGROV-1, 72 h, read-out: 50% Inhibitory Concentrations (IC50) at 72 h) was 2000 nM. For the same molecule, the “Survival (% control cells)” value (IGROV-1; [2]) was 96 % control cells and 76 % control cells, the “Survival (% control cells)” value (A2780/HPR; A2780/HPR, 4-oxo-4-HPR 0.3 μM, 72 h) was 96 % control cells and 84 % control cells and 71 % control cells and the “tumor cell survival (FIG. 2), in words” value (A2780/HPR; A2780/HPR, 72 hr, 0.3 to 10 μM) was “highly effective”.
